System: E. coli MegaX DH10B T1R cells
Format: cell-based, Escherichia coli
Conditions: for MIC: antibiotics used in functional metagenomic selections of E. coli libraries
Source text: To compare further the functions represented in the complete and cultured microbiota independent of annotation, antibiotic-resistance genes were captured from their microbiomes in expression vectors in Escherichia coli. Each E. coli library contained ˜1 GB of 1.5- to 4-kB fragments of microbiome DNA subcloned into an expression vector and was screened against a panel of 15 antibiotics and clinically relevant antibiotic combinations (Table 3). Genes encoding resistance to the same 14 antibiotics were captured in libraries prepared from complete and cultured fecal samples (FIG. 3G and Table 4). In one example, a screen for DNA fragments that confer resistance to the aminoglycoside amikacin produced candidate genes from the microbiomes of both complete and cultured microbial communities from Donor 1 but not from Donor 2. Two genes conferring amikacin resistance (either the 16S rRNA methylase rmtD or the aminoglycoside phosphotransferase aphA-3) were identified in 70% of the DNA fragments captured in selections for this phenotype.
DNA fragments from complete and cultured communities were cloned into an expression vector, electroporated into Escherichia coli, and screened for their ability to confer resistance to 15 different antibiotics. To this end, 10 μg of DNA purified from the two human donors' fecal microbiota, from the derived cultured communities, plus pooled contents of the arrayed strain collection were sheared to 1.5- to 4-kB fragments (Bioruptor XL), followed by size selection (1% agarose gel electrophoresis). Sheared DNA then was endrepaired (Epicentre Endlt Kit), column-purified (Qiagen Qia-Quick PCR Purification Kit), and concentrated in a vacuum evaporator (SpeedVac). […] Approximately 500 ng of the DNA fragments were ligated to 100 ng of the linearized vector in an overnight ligation reaction (Epicentre FastLink Ligation Kit). The ligation reaction was desalted by dialysis in double-distilled H2O and electroporated into E. coli MegaX DH10B T1R cells (Invitrogen). After 1 h of recovery, a small (1 μL) aliquot of the library was titered with serial dilutions onto LB agar plates containing 50 μg/mL kanamycin (to select for pZE21 transformants) and incubated at 37° C. for 16 h. The insert size distribution for each library was characterized by gel electrophoresis of amplicons obtained using primers flanking the HincII site in the multiple cloning site of pZE21 MCS1. The total size of each library was estimated by multiplying average insert size by the number of cfu in a given library. The remainder of the recovered cells was inoculated into 10 mL LB containing 50 μg/mL kanamycin and grown overnight, with shaking, at 27° C. for ˜16 h. The culture subsequently was diluted with an equal volume of LB medium containing 30% glycerol and stored at −80° C. before screening.
For functional selections, 100 μL of each library freezer stock (corresponding to 0.5-1×10^8 cfu) was plated on an LB agar plate containing kanamycin (50 μg/mL) plus one of 15 different antibiotics (Table 3). The total number of cells plated on each antibiotic represented ˜10 copies of each original unique transformant. Antibiotic-resistant colonies were scored after plates had been incubated at 37° C. for 16 h. Inserts contained in colonies with amikacin-, piperacillin- and piperacillin/tazobactam-resistant phenotypes were subjected to bidirectional Sanger sequencing (Beckman Coulter Genomics) using primers pZE21—81—104—57C (5′-[…] GGT-3′; SEQ ID NO 5) and pZE21—151—174rc—58C (5′-[…]-3′; SEQ ID NO 6). Resulting reads were trimmed to remove low-quality and vector sequences and subjected to within-library contig assembly (≧200 bp of 97% ID sequence required). Contigs and unassembled reads were mapped by BLAST to the National Center for Biotechnology Information (NCBI) nonredundant database and to a custom database of 122human gutmicrobial genomes. All sequence datasets have been deposited in the NCBI Sequence Read Archive (SRA) under accession no. […]

Row | Compound | MIC [µg/mL] | further results
1 | CN(C)[C@@H]1C(=O)C(C(N)=O)=C(O)[C@@]2(O)C(=O)C3=C(O)c4c(O)cccc4[C@@](C)(O)[C@H]3C[C@@H]12 [Tetracyline] | 8000 | –
2 | O=C(N[C@H](CO)[C@H](O)c1ccc([N+](=O)[O-])cc1)C(Cl)Cl [Cloramphenicol] | 8000 | –
3 | Gentamicin | 16000 | –
4 | CN(C)[C@@H]1C(O)=C(C(N)=O)C(=O)[C@@]2(O)C(O)=C3C(=O)c4c(O)cccc4[C@@](C)(O)[C@H]3[C@H](O)[C@@H]12 [Oxytetracyline] | 8000 | –
5 | Penicillin | 128000 | –
6 | Piperacillin + Tazobactam | – | MIC (mg/mL), PI of PI + TZ (piperacillin part of the combination): 16 mg/mL; MIC (mg/mL), TZ of PI + TZ (tazobactam part of the combination): 4 mg/mL
7 | Trimethoprim + Sulfamethoxazole | – | MIC (mg/mL), SX of TR + SX (sulfamethoxazole part of the combination): 38 mg/mL; MIC (mg/mL), TR of TR + SX (trimethoprim part of the combination): 2 mg/mL

— US20140045744A1, “CULTURED COLLECTION OF GUT MICROBIAL COMMUNITY” (THE WASHINGTON UNIVERSITY, priority 2011, published 2014)
